For data set [1], the system named is Alcaligenes faecalis B-326. The data set is described as follows: MIC, broth dilution method. Conditions: Alcaligenes faecalis, B326, read-out: Minimum inhibitory concentration. The class given is cell-based. How it is done:
(§1) Sodium salt of the antibiotic PS-7 was dissolved and diluted with the BRAIN HEART INFUSION BROTH "Eiken" at a concentration between 5 μg/ml and 100 μg/ml. The solution was further diluted with the same medium to obtain a series of geometric concentrations. To the serial dilutions were added the seed cultures prepared by shaking culture of various test microorganisms shown in Tab. 5 in the BRAIN HEART INFUSION GROTH at 28° C. for 18 hours, the final cell count being about 1×10^5 /ml. […] The lowest concentration at which no cell growth was observed was the minimum inhibitory concentration of the antibiotic PS-7 on the test microorganism. […] . The minimum inhibitory concentrations on test strains were determined in the same manner as mentioned above. […] For the comparison, the results on the known antibiotics Cephazolin and Cefoxitin are also given in the same table.
(In general: Broth dilution looks for growth in wells or tubes with falling amounts of substance.)

Another data set deals with Citrobacter freundii E-9. In words: MIC, broth dilution method. The class given is cell-based. Particulars: Citrobacter freundii, read-out: Minimum inhibitory concentration. How it is done: as §1
In data set [2] the test system is Enterobacter cloacae E-16. The data set is described as follows: MIC, broth dilution method. The format is cell-based. Conditions: Enterobacter cloacae, read-out: Minimum inhibitory concentration. The procedure:
Sodium salt of the antibiotic PS-7 was dissolved and diluted with the BRAIN HEART INFUSION BROTH "Eiken" at a concentration between 5 μg/ml and 100 μg/ml. The solution was further diluted with the same medium to obtain a series of geometric concentrations. To the serial dilutions were added the seed cultures prepared by shaking culture of various test microorganisms shown in Tab. 5 in the BRAIN HEART INFUSION GROTH at 28° C. for 18 hours, the final cell count being about 1×10^5 /ml. […] The lowest concentration at which no cell growth was observed was the minimum inhibitory concentration of the antibiotic PS-7 on the test microorganism. […] The minimum inhibitory concentrations on test strains were determined in the same manner as mentioned above.

The nature of data set [3]: Acute toxicity, intraperitoneal administration. The format is in vivo, DDY male mice.
Data set [4] deals with Inducible penicillinase of Bacillus cereus 569 (ATCC 27348). In words: Susceptibility to beta-lactamase as enzymic substrate. The class given is biochemical. Particulars: for Km: 30° C., pH 6.8 phosphate buffer, decrease of optical density at 301 nm (PS-6) or 308 nm (PS-7); for Behavior against β-lactamase: β-lactamase of Bacillus cereus. How it is done:
(b) Inducible penicillinase of Bacillus cereus 569 (ATCC 27348). This beta-lactamase was induced by ampicillin and purified by CM-cellulose column chromatography.
Time course of the hydrolysis was traced at 30° C. by determining the decrease in optical density at 301 nm which corresponds specifically to the concentration of antibiotic PS-6. As described in Japanese Patent Application No. 94651/77, the antibiotic PS-5 sodium salt preparation gave a E1 cm^1% value of 267.5 at the λmax of 301 nm. If this preparation contained no water of crystallization, its epsilon value would be 8560.
As 5% of the initial optical density of antibiotic PS-5 at 301 nm remained even after the complete decomposition with hydroxylamine or beta-lactamase, the differential optical density of this substrate at 301 nm was supposed to be Δε=8132. This was supposed to be applicable to the antibiotic PS-6, and the following calculation was carried out.
(b) Inducible penicillinase of Bacillus cereus 569. Time course of the hydrolysis of antibiotic PS-6 by this beta-lactamase was followed under the above-described conditions by determining the optical density at 301 nm of the reaction mixtures containing 7.5 μl of the above mentioned enzyme preparation and […] of antibiotic PS-6 as the substrate in a total of 3.0 ml (final concentration of antibiotic PS-6=[…]/ml=8.63 μg/ml; optical density at 301 nm=0.366).
The behavior of the antibiotic PS-7 (sodium salt) against the induced-type penicillinase produced by Bacillus careus 569 (ATCC 27348) as the substrate was examined according to the following method:
Sodium salt of the antibiotic PS-7 was dissolved in 100 mM phosphate buffer solution (pH 6.8) at the indicated concentration.
The induced-type penicillinase of Bacillus cereus 569 (ATCC 27348) was induced by Ampicillin and partially purified by CM cellulose (Brown Co.) column chromatography.
The solution of the antibiotic PS-7 that was served as the substrate was warmed at 30° C. […] The reaction was carried out at 30° C. and a decrease in the substrate, antibiotic PS-7, was monitered by the absorbance at 308 nm.
A balance of absorbance at 308 nm was determined to be ε=9720 on the assumption that the ε value of the antibiotic PS-7 is 10,800 based on the decrease in the absorbance when pure preparation of the antibiotic PS-7 was completely decomposed by the enzyme above mentioned.
A reaction mixture containing 10 μl of the penicillinase preparation and 102 mμ moles of the antibiotic PS-7 (final concentration: 34 mμ moles/ml) in a total volumn of 3.0 ml was incubated under the conditions mentioned above and change of decreasing concentration of the antibiotic PS-7 was measured in relation to the incubation time.

Data set [5] can be described thus: Stability (general statements). The class given is physicochemical. Particulars: general statement.
In data set [6] the test system is β-lactamase-producing, β-lactam-resistant bacteria. In words: Increase of the antibiotic activity of other antibiotics (summary in words). The format is cell-based. Conditions: β-lactamase-producing bacteria such as Proteus vulgaris, Serratia marcescens. How it is done: 10 ml of 2.5 folds diluted nutrient agar (pH 7.0) containing 50 μg/ml of penicillin G or cephaloridine was seeded with the β-lactamase producing and β-lactam-resistant microorganisms and poured in a 9 cm Petri dish to provide the bio-assay agar plate. […] A control assay plate was similarly prepared without penicillin G or cephaloridine. As reference antibiotics, 10,000 μg/ml of penicillin G or 20 μl of cephaloridine were disc-assayed under the same conditions.
Cepholoridine was added to a 2.5-times diluted nutrient agar, pH 7.0 and the medium was inoculated with a β-lactam-producing strain that produceds β-lactamase. Ten ml of the medium was spread and solidified in a petri dish of 9 cm in diameter to prepare an assay plate. […] Each 20 μl of the solution and its 2- and 4-times diluted solutions was soaked in a pulp disc of 8 mm in diameter. To the surface of the above nutrient agar was placed the pulp disc and the size of the growth inhibitory zone around the disc was examined after incubation at 35° C. for 18 hours. […] In addition, for the comparison, a similar experiment was also performed with a pulp disk soaked with 20 μl of 10,000 μg/ml Penicillin G or Cepholoridine solution in place of the antibiotic PS-7.

Values after ≈ are worked out from the molar mass of the structure shown. “Also recorded” adds a separate entry of the source. Like-named read-outs stand apart in the source and are kept apart here.

By Km is commonly meant the substrate concentration at which the rate is half of its maximum. As to `CC(=O)NCCSC1=C(C(=O)O)N2C(=O)C(C(C)C)C2C1` (stereo not drawn) [Antibiotic PS-6], the MIC was found to be 1.56 µg/mL (≈ 4.99 µM) in data set [1] (Table 5, 35° C. 20 hours); 12.5 µg/mL (≈ 40 µM) in the data set on Citrobacter freundii E-9 (E9, 20 h, Table 5, betalactamase producer); 25 µg/mL (≈ 80 µM) in data set [2] (E16, 20 h, Table 5, betalactamase producer). The Acute toxicity entry was “no toxicity” in data set [3] (mice, 500 mg/kg) and “No acute toxicity” in data set [3] (mice, 500 mg/kg, listed as PS-6 sodium salt). Moreover, in data set [4], the Km amounted to 17.7 µM. Also, the “Behavior against β-lactamase” value in data set [4] is given as “inactivated”. Also, the Stability result in data set [5] was “somewhat labile; also recorded: more stable in the salt form than in the free acid state”. The “Synergistic enhancement of the activity of penicillin G or cephaloridine (β-lactam antibiotics)” value in data set [6] was “showed clearly the synergistic effect; also recorded: ability to increase the antibiotic activity of other antibiotics”.

In the case of `CCC1C(=O)N2C(C(=O)O)=C(SC=CNC(C)=O)CC12` (stereo not drawn) [Antibiotic PS-7], the MIC in data set [1] (Table 7, no unit in the head) is 0.78 µg/mL (≈ 2.63 µM); in the data set on Citrobacter freundii E-9 (E9, Table 7, no unit in the head, lactamase-producing strain), 3.13 µg/mL (≈ 10.6 µM); in data set [2] (E16, Table 7, no unit in the head, lactamase-producing strain), 6.25 µg/mL (≈ 21.1 µM). Moreover, the Acute toxicity entry in data set [3] (DDY male mice, dose not given) was “No acute toxicity”; in data set [3] (mice, 500 mg/kg), “no acute toxicity”. Also, the Km in data set [4] was found to be 13 µM. In addition, the “Behavior against β-lactamase” value in data set [4] is on record as “inactivated”. Moreover, the Stability entry in data set [5] is listed as “somewhat labile; also recorded: more stable in the salt form than in the free acid state”. The “Synergistic enhancement of the activity of penicillin G or cephaloridine (β-lactam antibiotics)” value in data set [6] is reported as “ability to enhance antimicrobial activity of other antibiotics; also recorded: evident enhancement of antimicrobial activity”.

For the origin of these results see patent publication US4368203A, “Antibiotics and derivatives thereof having β-lactamase inhibitory activity and production thereof” (priority 1977, dated 1983).
